Test results: patent publication US20090148850A1, “Methods for identifying modulators of P2RY14” (priority 2007, published 2009)

Assays:
[1] = target: T1, mouse P2RY14 (Mus musculus, UniProt Q9ESG6); test: FLIPR whole cell Ca2+ agonist assay, HEK cells expressing mouse P2RY14 and Gqi5; assay type: cell-based
T1 construct: expressed in transfected cells
T1 sequence (Q9ESG6 1-338): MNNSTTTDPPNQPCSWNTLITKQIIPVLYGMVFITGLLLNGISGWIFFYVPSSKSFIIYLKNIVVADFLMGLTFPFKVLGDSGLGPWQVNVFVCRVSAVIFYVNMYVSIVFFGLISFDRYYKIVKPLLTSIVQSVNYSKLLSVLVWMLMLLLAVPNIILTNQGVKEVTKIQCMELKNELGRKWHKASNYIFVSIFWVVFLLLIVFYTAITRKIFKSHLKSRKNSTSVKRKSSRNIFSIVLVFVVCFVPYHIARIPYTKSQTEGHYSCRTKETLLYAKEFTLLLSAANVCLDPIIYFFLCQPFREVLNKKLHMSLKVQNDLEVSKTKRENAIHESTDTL
Source text: Stable HEK clonal cell lines expressing P2RY14 and the chimeric G protein Gqi5 were constructed. The chimeric Gqi5 forces the coupling of P2RY14 through the Gq (calcium) pathway and allows for monitoring of calcium signaling using a calcium binding fluorescent dye and a FLIPR (fluorometric imaging plate reader, MDS Sciex). Vector pCEP4 comprising the chimeric Gqi5 was obtained from Molecular Devices, Sunnyvale, Calif. (Cat. No. RD-PGQI5).
The nucleic acid encoding the mouse P2RY14 was under the control of the CMV promoter.
Cells were grown in DMEM medium containing 25 mM HEPES, pH 7.4 and 10% FBS, 50 units/ml penicillin/50 μg/ml streptomycin, 2 mM glutamine and 1 mM sodium pyruvate at 37° C. in humidified air containing 5% CO2. Two days post-transfection, cells were grown under selection in the DMEM medium as indicated above and supplemented with 200 μg/ml Hygromycin B and 250 μg/ml geneticin.
Cells were incubated overnight at 37° C. and 5% CO2 to form a monolayer. On the following day, 30 μl of fluorescent no-wash dye was added to the cell monolayer and the plate was incubated for 60 minutes at 37° C., 5% CO2.
For agonist assays, 6.12 μl of 10× agonist solution was added to the cell/dye incubation and Ca^2+ signaling was monitored by FLIPR. For antagonist assays, 250 nl of compound in 100% DMSO was added to cell/dye mixture; following a 20 minute incubation at room temperature, 6.12 μl of 10× agonist solution at EC80 in HBSS containing 20 mM Hepes was added to cells and Ca^2+ signaling was monitored by FLIPR. Quantitation of the % stimulation or inhibition of Ca^2+ signaling by agonist or antagonist, respectively, was calculated using the Max-Min fluorescent signal detected.

[2] = tested on: simian (chimpanzee) P2RY14; test: CellKey System live cell functional assay, simian P2RY14; assay type: cell-based; conditions: HEK cells expressing simian P2RY14 and Gqi5
Procedure: (§1) The Cellkey System™ (MDS Sciex), a novel, live cell, label-free, real-time technology, was used to examine P2RY14 activation following agonist stimulation. The CellKey System™ is based on cellular dielectric spectroscopy (CDS) and monitors changes in impedance of the applied electrical current through the cell monolayer upon receptor activation.
(§2) On the following day, growth medium was removed from the cell monolayer and replaced with 135 μl of HBSS pH 7.4 containing 20 mM Hepes for a 30 minutes pre-incubation period at room temperature. Baseline measurements were made for 5 minutes at 28° C. prior to ligand addition. For agonist assays, 15 μl of 10× agonist diluted in HBSS pH 7.4 containing 20 mM HEPES was added to the cell monolayer simultaneously using the 96 multichannel head from the CellKey™ System. Cellular response was monitored for 10 minutes to assess cellular response after ligand addition.

[3] = tested on: simian P2RY14; test: Membrane filtration binding assay, simian P2RY14; design: species or system chimpanzee; conditions: simian P2RY14 membranes
Procedure: Membrane preparations were made by N2 cavitation using a Parr unit. […] Cell were Dounce homogenized (size B, 10 strokes) and then added to the cavitation unit. Pressure was adjusted to 800 psi and cells were left under pressure for 30 minutes. Broken cells were released drop by drop and spun at 1000 g for 10 minutes. Supernatent was spun at 160,000 g (rotor type 60 Ti, 40000 rpm for 30 min). Pellet was resuspended in 10 mM HEPES/KOH pH 7.4, 1 mM EDTA in ⅕ the original volume, dounce homogenized (size A, 10 strokes), aliquoted, and frozen at −80° C.
Binding assays were performed in 10 mM Hepes pH 7.4 (KOH), 5 mM MnCl2, 5 mM MgCl2 buffer. Membranes (10 μg/well for human P2RY14 and 30 μg/well for simian P2RY14) were incubated with 10 nM [5.6-^3H] Uridine 5′-triphosphate (UTP), ammonium salt from Amersham Biosciences (# TRK412) in presence of compounds diluted in DMSO (2% final in assay), in a total volume of 100 μl. 50 minutes (human P2RY14) or 60 minutes (simian) P2RY14) incubations were performed at room temperature with shaking. […] To examine the stability of [^3H]-UTP in the membrane filtration binding assay, 100 ul aliquots of the reaction mixture were extracted at 2, 10, 20, 40, 60 and 90 minutes with 100 uL of cold 80 mM EDTA solution (pH 8) and 200 uL of cold Acetonitrile. After mixing, proteins were precipitated by centrifugation at 13000 rpm for 10 minutes at 4° C. […] After 0.5 min at 10:90 50 mM KH2PO4/750 mM KH2PO4, a gradient was applied in order to increase to 100% 750 mM KH2PO4 at 5 min, after which this composition was maintained for an additional 3 min. Samples were kept at 4° C. prior to HPLC analysis

[4] = target: T2, P2RY14 (Homo sapiens, UniProt Q15391); test: CellKey System live cell functional assay, human P2RY14; assay type: cell-based; design: expressed in transfected cells; conditions: HEK cells expressing human P2RY14 and Gqi5
T2 sequence (Q15391 1-338): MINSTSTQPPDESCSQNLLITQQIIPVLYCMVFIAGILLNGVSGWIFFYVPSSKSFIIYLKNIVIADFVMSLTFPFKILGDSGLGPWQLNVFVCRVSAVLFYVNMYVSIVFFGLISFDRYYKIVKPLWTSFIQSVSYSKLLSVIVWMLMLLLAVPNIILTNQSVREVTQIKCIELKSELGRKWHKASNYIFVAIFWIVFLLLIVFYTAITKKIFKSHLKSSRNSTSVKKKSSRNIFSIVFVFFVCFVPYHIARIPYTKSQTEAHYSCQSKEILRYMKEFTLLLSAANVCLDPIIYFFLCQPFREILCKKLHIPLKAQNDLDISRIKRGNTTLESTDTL
Procedure: as §1, §2

O=c1ccn([C@@H]2O[C@H](COP(=O)(O)O)[C@@H](O)[C@H]2O)c(=O)[nH]1 [UMP]
activation of P2RY14 (Ca2+ signaling) [1]: activated | P2RY14 signaling (impedance, CellKey) [2]: mediated signaling | competition for [3H]-UTP/[3H]-UDP binding [3]: able to successfully compete | Ki ([3]; 10 nM radioligand, read-out: Ki, competition for [3H]-UTP/[3H]-UDP binding): ~1 µM | P2RY14 signaling (impedance, CellKey) [4]: mediated signaling
